Legend:
Type in all cases: in vivo, human
[1] = test system: subjects with Idiopathic Pulmonary Fibrosis (IPF); experiment: Phase 2a study in IPF subjects: lung function by forced vital capacity (FVC, ppFVC)
Protocol: Study Design. Eligible subjects with mild to moderate IPF were randomized to receive placebo or ENV-101 as a daily oral dose for 12 consecutive weeks of treatment. […] Subjects participated in a Screening Visit, a Day 1 randomization visit, a telephone visit at Week 1, visits at Week 6 and Week 12 during the treatment period and a follow-up visit at Week 18. All subjects were randomized to receive either placebo or 200 mg of taladegib (ENV-101). During the treatment period, if a subject experienced an adverse event that is related to the study medication, the dose of the study drug was permitted to be modified based on the type of adverse event observed and after consultation with the Sponsor and Medical Monitor. A study subject was considered to have completed the study if he or she completed all study visits including the last visit or the last scheduled procedure shown in the Schedule of Activities (SoA). • 1. Males and females greater than 40 years of age. • 2. Idiopathic Pulmonary Fibrosis diagnosis based upon […], Japanese Respiratory Society, European Respiratory Society, Latin […] guidelines within the last 7 years. Diagnosis will be confirmed to be consistent with IPF by centrally read high resolution computed tomography (HRCT) obtained at the Screening Visit or previous HRCT scan performed within 30 days of the Screening Visit may be used. • 3. Ability to successfully perform lung function tests. • 4. Percent predicted forced vital capacity (FVC) of >50% at the Screening Visit. • 5. […] Evidence of other known causes of interstitial lung disease (ILD) (e.g., domestic and occupational environmental exposures, connective-tissue disease [CTD], and drug toxicity), lung transplant expected within 12 months of screening or evidence of clinically significant lung disease other than IPF including but not limited to asthma, chronic obstructive pulmonary disease (COPD), uncontrolled pulmonary hypertension and emphysema where computed tomography (CT)-assessed extent of emphysema is greater than extent of fibrosis. • 2. […]

[2] = test system: subjects with Idiopathic Pulmonary Fibrosis (IPF); experiment: Phase 2a study in IPF subjects: patient reported outcome, UCSD Shortness of Breath Questionnaire (SOBQ); conditions: 200 mg once a day, vs placebo, not statistically significant
Protocol: Study Design. Eligible subjects with mild to moderate IPF were randomized to receive placebo or ENV-101 as a daily oral dose for 12 consecutive weeks of treatment. […] Subjects participated in a Screening Visit, a Day 1 randomization visit, a telephone visit at Week 1, visits at Week 6 and Week 12 during the treatment period and a follow-up visit at Week 18. All subjects were randomized to receive either placebo or 200 mg of taladegib (ENV-101). During the treatment period, if a subject experienced an adverse event that is related to the study medication, the dose of the study drug was permitted to be modified based on the type of adverse event observed and after consultation with the Sponsor and Medical Monitor. A study subject was considered to have completed the study if he or she completed all study visits including the last visit or the last scheduled procedure shown in the Schedule of Activities (SoA). [table] The dosing regimen evaluated in this study was ENV-101 or placebo administered daily. The dose of ENV-101 studied was 200 mg. Subjects randomized to ENV-101 took two 100 mg tablets daily for the 200 mg dose, while subjects randomized to placebo took two placebo tablets daily. Subjects took both tablets at the same time, and it was recommended that subjects take the dose at the same time each day, ideally in the morning prior to eating. […]

[3] = test system: subjects with Idiopathic Pulmonary Fibrosis (IPF); experiment: Phase 2a study in IPF subjects: quantitative HRCT measurements (TLC, % QILD, % QLF, % QGG)
Protocol: Study Design. Eligible subjects with mild to moderate IPF were randomized to receive placebo or ENV-101 as a daily oral dose for 12 consecutive weeks of treatment. […] Subjects participated in a Screening Visit, a Day 1 randomization visit, a telephone visit at Week 1, visits at Week 6 and Week 12 during the treatment period and a follow-up visit at Week 18. All subjects were randomized to receive either placebo or 200 mg of taladegib (ENV-101). During the treatment period, if a subject experienced an adverse event that is related to the study medication, the dose of the study drug was permitted to be modified based on the type of adverse event observed and after consultation with the Sponsor and Medical Monitor. A study subject was considered to have completed the study if he or she completed all study visits including the last visit or the last scheduled procedure shown in the Schedule of Activities (SoA). [table] The dosing regimen evaluated in this study was ENV-101 or placebo administered daily. The dose of ENV-101 studied was 200 mg. Subjects randomized to ENV-101 took two 100 mg tablets daily for the 200 mg dose, while subjects randomized to placebo took two placebo tablets daily. Subjects took both tablets at the same time, and it was recommended that subjects take the dose at the same time each day, ideally in the morning prior to eating. If a subject experienced nausea or other gastrointestinal symptoms, it was recommended that the subject take the dose with a low-fat meal or prior to bedtime.

[4] = test system: subjects with Idiopathic Pulmonary Fibrosis (IPF); experiment: Post-hoc analysis of HRCT images with Qureight deep learning models (Lung8, Vascul8, Fibr8)
From the text: A post-hoc analysis utilizing deep learning models developed by Qureight (using machine learning methodologies such as 3D convolutional neural networks), were employed to quantify lung volume (Lung8), vessel volume (Vascul8), fibrosis extent (Fibr8) and airway volume (Air8) from High Resolution Computed Tomography images. Deep learning-based CT biomarkers provide an alternate, non-invasive way to predict disease progression and/or assess treatment effects in antifibrotic clinical trials. 34 patients with baseline and week 12 HRCTs were available for model analysis. Of the 34 patients, 18 patients received placebo, and 16 received ENV-101. Group comparisons were performed with an independent t-test, and linear regression assessed variable relationships. Effect sizes were calculated using Hedges' G to account for sample size bias. A p-value<0.05 was considered significant.

[5] = week 12, ENV-101 vs placebo, Hedges' G

SMILES: CN(C(=O)c1ccc(F)cc1C(F)(F)F)C1CCN(c2nnc(-c3ccnn3C)c3ccccc23)CC1 [taladegib]
- mean change from baseline of percent predicted forced vital capacity (ppFVC) ([1]; IPF subjects, 200 mg QD, at 6 weeks (n=16)): 1.7%
- effect size, % predicted FVC ([1]; post-hoc analysis, ENV-101 vs placebo, Hedges' G): 0.78
- % predicted FVC compared to placebo ([1]; post-hoc analysis, patients with baseline and week 12 HRCT, p=0.03): significant improvement
- mean change from baseline of responses to the UCSD Shortness of Breath Questionnaire (SOBQ) [2]: improvement
- change from baseline in percent quantitative ground glass opacity (% QGG) ([3]; 200 mg once a day for 12 weeks): about −4.6%
- change from baseline in percent quantitative interstitial lung disease (% QILD) ([3]; 200 mg once a day for 12 weeks): about −9%
- change from baseline in percent quantitative lung fibrosis (% QLF) ([3]; 200 mg once a day for 12 weeks): about −2%
- increase in total lung capacity (TLC) ([3]; 200 mg once a day for 12 weeks, p=0.005): about 200 mL
- increase in total lung capacity (TLC), percent ([3]; 200 mg once a day, over the three month treatment period): about 8%
- fibrosis (conclusion in words) ([4]; treated over 12 weeks): reduced
- lung volume (conclusion in words) ([4]; treated over 12 weeks): significantly improved
- pulmonary vascular volume (conclusion in words) ([4]; treated over 12 weeks): significantly reduced
- Change in Pulmonary vascular volume (normalised to lung volume) ([4]; week 12, 16 patients on ENV-101, p=0.0007 vs placebo): −0.25%
- Lung volume change (total lung volume, Lung8) ([4]; week 12, 16 patients on ENV-101, p=0.014 vs placebo): 142.28 mL
- Change in Fibrosis (extent, normalised to lung volume) ([4]; week 12, 16 patients on ENV-101, p=0.063 vs placebo): −1.32%
- effect size, change in pulmonary vascular volume [4, 5]: −1.28
- effect size, lung volume change [4, 5]: 0.87

Reference: patent publication US12605380B2, “Methods of improving lung function” (Endeavor BioMedicines, Inc., priority 2024, dated 2026)
